Experimental data as given in paper PMC6718736, “Validation of in vitro methods for human cytochrome P450 enzyme induction: Outcome of a multi-laboratory study” (Toxicology in Vitro, 2019).
“Also recorded” adds a separate entry of the source. Where two headings read alike, the source gives them in different places.

Tests used:
[1] = cited from earlier work
[2] = Solubility by nephelometry (EURL ECVAM); type: physicochemical; conditions: ECVAM nephelometry, ^2 = solubility limit
Description: In addition to the visual inspection performed by the validation laboratories as described in the SOP, EURL ECVAM introduced nephelometry for systematic solubility determination of the 13 validation set chemicals. Nephelometry uses a laser beam and the principle of Tyndall effect light scatter to detect turbidity due to insolubility. The nephelometer method used formazin as reference item (1, 5, 10 and 20 nephelometric turbidity units (NTU)) to calculate the relative turbidity (RTU) of the validation set of chemicals. To the naked eye, 20 NTU is perceptible, while the nephelometer was sensitive to 5 NTU, with 1 NTU equivalent to background (solvent/medium blank).

[3] = Solubility by visual inspection (DMSO stock solution and assay medium); type: physicochemical; conditions: assay medium
Protocol: The SOPs relied on visual inspection for solubility observation. […] The absence of precipitation in the medium was checked pre- and post-incubation (24 hours) by centrifugation of the sample and observation of any precipitation (pellet residue).

[4] = tested on: CYP1A2; assay: CYP1A2 enzyme induction assay in cryopreserved primary human hepatocytes (PHH); type: in vitro ADME; conditions: for Prediction in vivo inducer: Cmax/F2 >0.5 criterion; for Assigned classification CYP1A2: PHH;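 as to Assigned classification CYP1A2: code 1 means positive inducer and 0 means non-inducer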
[5] = tested on: CYP2B6; assay: CYP2B6 enzyme induction assay in cryopreserved HepaRG cells (bupropion probe, LC/MS); type: in vitro ADME, human; conditions: for Prediction in vivo inducer: Cmax/F2 >0.5 criterion; for Assigned classification CYP2B6: HepaRG; as to Assigned classification CYP2B6: key: 1=Positive=inducer; 0=Negative=non-inducer
[6] = tested on: CYP2B6; assay: CYP2B6 enzyme induction assay in cryopreserved primary human hepatocytes (PHH); type: in vitro ADME; conditions: for Assigned classification CYP2B6: PHH;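 as to Assigned classification CYP2B6: code 1 means positive inducer and 0 means non-inducer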
[7] = tested on: CYP2B6; conditions: cited from earlier work
[8] = tested on: CYP1A2; conditions: cited from earlier work
[9] = tested on: CYP1A2; assay: CYP1A2 enzyme induction assay in cryopreserved HepaRG cells (phenacetin probe, LC/MS); type: in vitro ADME, human; conditions: for Assigned classification CYP1A2: HepaRG; as to Assigned classification CYP1A2: key: 1=Positive=inducer; 0=Negative=non-inducer
[10] = human in vivo plasma concentration, normal dose
[11] = human in vivo, normal dose (Table 10)
[12] = human in vivo, CYP named without remark = induced, ref references in the cell, Washington University database, Hoffmann et al. (2014), Pelkonen et al. (2008), Hukkanen et al. (2012)

CC1(C)S[C@@H]2[C@H](NC(=O)Cc3ccccc3)C(=O)N2[C@H]1C(=O)O [Penicillin G sodium]
Cmax [1, 10]: 36 µM
Cmax [1, 11]: 36 µM
HepaRG medium stability ([2]; HepaRG medium): 40 µg/mL
PHH medium stability ([2]; PHH medium): 40 µg/mL
HepaRG medium stability ([3]; Lab 1, visual observation): 40 µg/mL
HepaRG medium stability ([3]; Lab 2, visual observation): 40 µg/mL
HepaRG medium stability ([3]; Lab 3, visual observation): 40 µg/mL
PHH medium stability ([3]; Lab 4, visual observation): 40 µg/mL
PHH medium stability ([3]; Lab 5, visual observation): 40 µg/mL
PHH medium stability ([3]; Lab 6, visual observation): 20 µg/mL

CO[C@H]1/C=C/O[C@@]2(C)Oc3c(C)c(O)c4c(O)c(c(/C=N/N5CCN(C)CC5)c(O)c4c3C2=O)NC(=O)/C(C)=C\C=C\[C@H](C)[C@H](O)[C@@H](C)[C@@H](O)[C@@H](C)[C@H](OC(C)=O)[C@@H]1C [Rifampicin]
Prediction in vivo inducer ([4]; CYP1A2, PHH): No
Prediction in vivo inducer ([4]; CYP1A2, PHH, listed as rifampicin): non-inducer; also recorded: missed the in vivo prediction
Induction in vitro ([4]; CYP1A2, PHH, positive in one donor in each of the three laboratories): No
Assigned classification CYP1A2 ([4]; Lab 1, batch 0 6 A): 0
Assigned classification CYP1A2 ([4]; Lab 1, batch 4 0 8): 0
Assigned classification CYP1A2 ([4]; Lab 1, batch 8 0 8): 0
Assigned classification CYP1A2 ([4]; Lab 2, batch 0 6 A): 0
Assigned classification CYP1A2 ([4]; Lab 2, batch 4 0 8): 0
Assigned classification CYP1A2 ([4]; Lab 2, batch 8 0 8): 1
Assigned classification CYP1A2 ([4]; Lab 3, batch 0 6 A): 1
Assigned classification CYP1A2 ([4]; Lab 3, batch 4 0 8): 0
Assigned classification CYP1A2 ([4]; Lab 3, batch 8 0 8): 0
Prediction in vivo inducer ([5]; CYP2B6, HepaRG cells): Yes
Prediction in vivo inducer ([5]; CYP2B6, HepaRG cells, listed as rifampicin): correctly classified
F2 ([5]; CYP2B6, HepaRG cells, in vitro concentration producing 2-fold induction): 0.6 to 1.80 µM
Induction in vitro ([5]; CYP2B6, HepaRG cells, positive in one batch in each of the three laboratories): Yes
Assigned classification CYP2B6 ([5]; Lab 1, batch 20): 0
Assigned classification CYP2B6 ([5]; Lab 1, batch 35): 1
Assigned classification CYP2B6 ([5]; Lab 1, batch 36): 0
Assigned classification CYP2B6 ([5]; Lab 2, batch 20): 1
Assigned classification CYP2B6 ([5]; Lab 2, batch 35): 0
Assigned classification CYP2B6 ([5]; Lab 2, batch 36): 1
Assigned classification CYP2B6 ([5]; Lab 3, batch 20): 0
Assigned classification CYP2B6 ([5]; Lab 3, batch 35): 0
Assigned classification CYP2B6 ([5]; Lab 3, batch 36): 1
Cmax [1, 10]: 8 to 12 µM
Cmax [1, 11]: 8 to 12 µM
F2 ([6]; CYP2B6, PHH): 0.2 µM
Induction in vitro ([6]; CYP2B6, PHH): Yes
Prediction in vivo inducer ([6]; CYP2B6, PHH): Yes
Prediction in vivo inducer ([6]; CYP2B6, PHH, Cmax/F2 >0.5 criterion): positive
Assigned classification CYP2B6 ([6]; Lab 1, batch 0 6 A): 1
Assigned classification CYP2B6 ([6]; Lab 1, batch 4 0 8): 1
Assigned classification CYP2B6 ([6]; Lab 1, batch 8 0 8): 1
Assigned classification CYP2B6 ([6]; Lab 2, batch 0 6 A): 1
Assigned classification CYP2B6 ([6]; Lab 2, batch 4 0 8): 0
Assigned classification CYP2B6 ([6]; Lab 2, batch 8 0 8): 1
Assigned classification CYP2B6 ([6]; Lab 3, batch 0 6 A): 1
Assigned classification CYP2B6 ([6]; Lab 3, batch 4 0 8): 1
Assigned classification CYP2B6 ([6]; Lab 3, batch 8 0 8): 1
Induction in vivo ([7]; CYP2B6, human in vivo reference classification): Yes
Induction in vivo ([7]; CYP2B6, human, ref Table 1): Yes
CYP induction in vivo literature reference: CYP2B6 [7, 12]: CYP2B6
Induction in vivo ([8]; CYP1A2, human, ref Table 1): Yes
CYP induction in vivo literature reference: CYP1A2 [8, 12]: CYP1A2
Prediction in vivo inducer ([9]; CYP1A2, HepaRG cells, Cmax/F2 >0.5 criterion): Yes
F2 ([9]; CYP1A2, HepaRG cells, in vitro concentration producing 2-fold induction): 0.20 to 0.60 µM
Induction in vitro ([9]; CYP1A2, HepaRG cells, positive in one batch in each of the three laboratories): Yes
Assigned classification CYP1A2 ([9]; Lab 1, batch 20): 1
Assigned classification CYP1A2 ([9]; Lab 1, batch 35): 1
Assigned classification CYP1A2 ([9]; Lab 1, batch 36): 1
Assigned classification CYP1A2 ([9]; Lab 2, batch 20): 1
Assigned classification CYP1A2 ([9]; Lab 2, batch 35): 1
Assigned classification CYP1A2 ([9]; Lab 2, batch 36): 1
Assigned classification CYP1A2 ([9]; Lab 3, batch 20): 1
Assigned classification CYP1A2 ([9]; Lab 3, batch 35): 1
Assigned classification CYP1A2 ([9]; Lab 3, batch 36): 1
